Source: patent US20260014125A1, “BICYCLIC-TYPE MAT2A INHIBITOR AND USE THEREOF” (HAIHE BIOPHARMA CO., LTD., priority 2022, published 2026)

How the values were obtained:
[1] = tested on: human B-cell lymphoma DOHH-2 cell subcutaneous xenograft tumor; assay: In vivo anti-tumor efficacy in the DOHH-2 cell subcutaneous xenograft tumor model; design: species or system mice; conditions: DOHH-2 xenograft; for T/C (%) / TGI (%): intragastric, female CB-17 SCID mice
Protocol: The in vivo anti-tumor efficacy of compound 13 and AG-270 (MAT2A inhibitor,
were evaluated using a human B-cell lymphoma DOHH-2 cell subcutaneous xenograft tumor model.
The female CB-17 SCID mice used were purchased from Beijing Vital River Laboratory Animal Technology Co., Ltd. Tumor cell culture and subcutaneous inoculation: Human B-cell lymphoma DOHH-2 cells (DSMZ) were cultured in vitro in RPMI-1640 medium containing 10% fetal bovine serum and 1% […], and incubated in a 5% CO2 incubator at 37° C. When the required number of cells was reached, the cells were collected, and counted. 0.2 mL (10×10^6) of DOHH-2 cells (with matrix gel added, volume ratio of 1:1) were subcutaneously inoculated into the right back of each mouse. When the average tumor volume reached 100-150 mm^3, random grouping would begin, with 5 mice in each group. The administration group (compound 13 or compound AG-270) was performed intragastric administration twice a day (dosage shown in Table 3), while the negative control group was performed intragastric administration using the same volume of blank solvent per day.
The experimental indicator was to examine whether tumor growth was inhibited, delayed, or cured. The tumor diameter was measured twice a week using a vernier caliper. The formula for calculating tumor volume was: V=0.5a×b^2, wherein a and b indicated the long and short diameters of tumors, respectively.
The anti-tumor efficacy of the compound was evaluated using TGI (%) or relative tumor proliferation rate T/C (%).
TGI (%) reflects the tumor growth inhibition rate. Calculation of TGI (%). TGI (%)=[(1−(average tumor volume at the end of administration in the treatment group-average tumor volume at the beginning of administration in the treatment group))/(average tumor volume at the end of treatment in the negative control group-average tumor volume at the beginning of treatment in the negative control group)]×100%.
Relative tumor proliferation rate TIC (%): The calculation formula was as follows: T/C %=TRTV/CRTV×100% (TRTV: administration group RTV: CRTV: negative control group RTV). The calculation formula of the relative tumor volume (RTV) was RTV=Vt/V0, wherein V0 was the average tumor volume measured at the time of group administration (i.e. d0), Vt was the average tumor volume measured at a certain measurement, and TRTV and CRTV took the same day's data.

KP-4 cells = assay: Human pancreatic cancer KP-4 cell activity inhibition test (CellTiter-Glo); type: cell-based; conditions: Homo sapiens, 120 h, 5 days
Protocol: Experimental principle: after co-incubating the MAT2A inhibitor to be tested with KP-4 cells for a period of time, a cell viability measurement method based on ATP content is used to characterize the effect of the tested compound on cell viability.
Experimental material: KP-4 cells (JCRB #JCRB0182); IMDM (Gibco 912440061); fetal bovine serum (EXCELL #FND500); penicillin-streptomycin (Gibco #15140-122); 0.25% Typsin-EDTA (Gibco #252(101-072); DMSO (Sigma #D2650); 96 well plate (Corning #3610); CellTiter-Glo (Promega #G7571)
1. KP-4 cells were cultured in IMDM culture medium containing 10% e fetal bovine serum and 1% penicillin-streptomycin at 37° C. and 5% CO2 in a cell culture incubator. Only cells in logarithmic growth phase were used for subsequent experiments.
2. The cells in logarithmic growth phase were inoculated into a 96 well plate, with a seeding quantity of 500 cells per well, and incubated overnight in a cell culture incubator at 37′C and 5% CO2.
3. The compound was dissolved with DMSO, diluted with culture medium to 10 different concentrations (approximately […]), 3333.3, 1111.1, 370, 123, 41.2, 13.7, 4.6, 1.5, and 0.5 nM) before adding it to the cell plate, and cultured at 37° C. and 5% CO2 for 5 days.
4. CellTiter-Glo reagent was added, and an enzyme-linked immunosorbent assay reader was used to detect cell viability.
Data analysis: the inhibition rate (%) of the compound was calculated and fitted to obtain the IC50 of the tested compound. Calculation method for compound inhibition rate: Compound inhibition rate (%)=(Signal_max−Signal_sample)/(Signal_max−Signal_min)×100, wherein Signal_sample was the sample well reading, indicating the cell activity of the compound inhibition well; Signal_min was the positive control well reading, indicating the background activity without cells; and Signal_max was the negative control well reading, indicating the cell activity of the well without compound inhibition.

MAT2A = MAT2A (Homo sapiens (Human), UniProt P31153); assay: Biochemical test: inhibition of MAT2A enzyme activity (phosphate detection, OD620); conditions: MAT2A his-tag; 150 minutes enzymatic reaction
Text: Experimental principle: MAT2A can catalyze the conversion of L-methionine and ATP into SAM, inorganic phosphate, and inorganic diphosphate. By adding a chromogenic reagent to the enzymatic reaction system, the content of inorganic phosphates in a sample can be quantitatively detected, thereby characterizing the enzymatic activity of MAT2A.
Experimental material: Tris (Life Science #0497); BSA (Sigma #); MAT2A his-tag (BPS #71401-1); 384 well plate (Corning #3765); L-methionine (Admas #1100469); ATP (Sigma #A7699); MgCl2 (Sigma #M8266); KCl (Sigma #7447-40-7); Brij35 (Sigma #B4184); EDTA (Sigma #E1644)
1. 1×Assaybuffer (buffer composition: Tris, KCl, MgCl2, BSA, Brij35, and EDTA; the solvent was ultrapure water) was prepared. MAT2A his-tag enzyme solution (containing 1.3 μL of MAT2A enzyme and 998.7 μL of 1×Assaybuffer per 1000 μL) and substrate mixed solution (containing 5 μL of ATP, 1.3 μL of L-methionine, and 993.7 μL of 1×Assaybuffer per 1000 μL) were prepared using 1×AssayBuffer.
2. Preparation of compound concentration gradient: The test compound was tested with a starting concentration of 10 μM, and 10 equimolar concentrations were set according to a 3-fold dilution. Specifically, firstly, the compound was diluted into 10 different concentrations of series solutions in a 384 well plate (with final detection concentrations of 10, 3.33, 1.11, 0.37, 0.123, 0.041, 0.0137, 0.0046, 0.0015, and 0.0005 μM), and then 250 nL of the above series solutions was transferred to the 384 well reaction plate using an ultrasonic pipetting system Echo550 for later use. 250 nL of 100% DMSO was added into a negative control well and a positive control well, respectively. Double well test.
3. 15 μL of MAT2A his-tag enzyme solution was added into both the compound well and the positive control well; and 15 μL of 1×Assaybuffer was added into the negative control well.
4. The 384 well plate reaction plate was centrifuged at 1000 rpm for 60 seconds, shaken, mixed well, and incubated for 15 minutes. 10 μL of substrate mixed solution was added into each experimental well of the 384 well reaction plate to initiate the reaction.
5. The 384 well reaction plate was centrifuged at 1000 rpm for 60 seconds, shaken, mixed well, and incubated for 150 minutes.
6. 50 μL of enzyme reaction termination solution Biomol was added into all experimental wells of the 384 well reaction plate to terminate the reaction, centrifuged at 1000 rpm for 60 seconds, and incubated for 15 minutes. OD620 was read and data was processed.
Data analysis: the inhibition rate (%) of the compound was calculated and fitted to obtain the IC50 of the tested compound. Calculation method for compound inhibition rate: Compound inhibition rate (%)=(OD620_max−OD620_stample)/(OD620_max−OD620_min)×100, wherein OD620_stample was the absorbance value of the sample well; OD620 min was the absorbance value of the positive control well, indicating the reading of the wells without enzyme activity; and OD620_max was the absorbance value of the negative control well, indicating the reading of the well without compound inhibition.

Sequence of MAT2A (P31153 whole entry): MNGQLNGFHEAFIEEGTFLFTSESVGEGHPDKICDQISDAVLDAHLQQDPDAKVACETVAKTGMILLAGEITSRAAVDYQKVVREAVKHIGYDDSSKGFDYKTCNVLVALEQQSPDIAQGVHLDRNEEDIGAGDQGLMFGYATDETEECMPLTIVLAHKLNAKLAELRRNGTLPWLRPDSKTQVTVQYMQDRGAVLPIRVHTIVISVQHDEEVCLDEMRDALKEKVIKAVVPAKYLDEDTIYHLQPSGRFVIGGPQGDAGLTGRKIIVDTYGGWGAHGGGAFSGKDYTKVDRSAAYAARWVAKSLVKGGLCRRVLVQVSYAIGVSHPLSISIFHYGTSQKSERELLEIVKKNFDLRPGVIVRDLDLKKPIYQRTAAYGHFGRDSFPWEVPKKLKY

| SMILES | IC50 (KP-4 cells) [nM] | IC50 (MAT2A) [nM] | further results |
| --- | --- | --- | --- |
| COc1ccc(-c2c(Nc3ccccn3)[nH]c3c(C4=CCCCC4)c(-c4ccccc4)nn3c2=O)cc1 [AG-270, reference compound] |  |  | T/C (%) ([1]; 80 mg/kg, QD): 22.32%; TGI (%) ([1]; 80 mg/kg, QD): 82.92% |
| CCOc1c(-c2ccc(Cl)cc2)c(=O)n(-c2ccc3nn(C)cc3c2)c2[nH]ncc12 [Compound 13] | 7.4 | 15.1 | T/C (%) ([1]; 5 mg/kg, BID): 35.54%; TGI (%) ([1]; 5 mg/kg, BID): 68.82%; T/C (%) ([1]; 10 mg/kg, BID): 26.46%; TGI (%) ([1]; 10 mg/kg, BID): 78.48%; T/C (%) ([1]; 20 mg/kg, BID): 15.98%; TGI (%) ([1]; 20 mg/kg, BID): 89.67%; in vivo efficacy, in words ([1]; 5, 10, 20 mg/kg BID): dose-dependent in vivo efficacy |
| CCOc1c(-c2ccc(Cl)cc2)c(=O)n(-c2ccc3nn(C)cc3n2)c2nn(C)cc12 [Compound 109] | 128 | 23.2 |  |
| CCOc1c(-c2ccc(C)cc2)c(=O)n(-c2ccc3nn(C)cc3c2)c2[nH]ncc12 [Compound 117] | 23.7 | 17.2 |  |
| CCOc1c(-c2ccc(F)c(F)c2)c(=O)n(-c2ccc3nn(C)cc3c2)c2[nH]ncc12 [Compound 118] | 136 | 16 |  |
| CCOc1c(-c2cnc(C(F)(F)F)nc2)c(=O)n(-c2ccc3nn(C)cc3c2)c2[nH]ncc12 [Compound 124] | 236 | 18 |  |
| CCOc1c(-c2ccc(OC)nc2)c(=O)n(-c2ccc3nn(C)cc3c2)c2[nH]ncc12 [Compound 126] | 38 | 12.6 |  |
| CCOc1c(-c2ccc(Cl)cc2)c(=O)n(-c2ccc3nn(C)nc3c2)c2[nH]ncc12 [Compound 127] | 8.9 | 12.4 |  |
| CCOc1c(-c2ccc(Cl)cc2)c(=O)n(-c2ccc3nn(C)cc3c2)c2nn(C)cc12 [Compound 134] | 6.1 | 19.1 |  |
| CCOc1c(-c2ccc(Cl)cc2)c(=O)n(-c2ccc3nn(C)nc3n2)c2[nH]ncc12 [Compound 137] | 427 | 16.8 |  |
| CCOc1c(-c2ccc(Cl)cc2)c(=O)n(C2=NC3C(C=C2)N=NN3C)c2[nH]ncc12 (stereo not drawn) [Compound 141] | 146 | 16.7 |  |

The remaining molecules from weak to strong by IC50 (KP-4 cells), led by results:

| IC50 (KP-4 cells) [nM] | IC50 (MAT2A) [nM] | SMILES | further results |
| --- | --- | --- | --- |
| 160 | 16.5 | CCOc1c(-c2ccc(Cl)cc2)c(=O)n(-c2ccc3nn(CCN(C)C)cc3n2)c2[nH]ncc12 [Compound 132] |  |
| 62.8 | 17.5 | CCOc1c(-c2ccc(Cl)cc2)c(=O)n(-c2ccc3nn(CCN(C)C)cc3c2)c2[nH]ncc12 [Compound 111] |  |
| 23.3 | 17.8 | CCNc1c(-c2ccc(OC(F)F)cc2)c(=O)n(-c2ccc3nn(C)cc3n2)c2[nH]ncc12 [Compound 129] |  |
| 3.7 | 11.7 | Cn1cc2cc(-n3c(=O)c(-c4ccc(Cl)cc4)c(NCC4CC4)c4cn[nH]c43)ccc2n1 [Compound 123] |  |
| 1.2 | 8.6 | CCOc1c(-c2ccc(Cl)cc2)c(=O)n(-c2ccc3nnn(C)c3c2)c2[nH]ncc12 [Compound 128] |  |
